15 molecules from patent publication US20110071158A1, “NEW COMPOUNDS” (BOEHRINGER INGELHEIM INTERNATIONAL GMBH, priority 2009, published 2011) can be followed below.

As usually defined, the pIC50 is the IC50 on a negative log10 scale, so that one unit is a factor of ten.

pIC50: −log10 of the molar value.

Common to all, as to type: biochemical
Assay [1] has as its target T1, Xenopus laevis Aurora B/INCENP complex (Xenopus laevis, UniProt Q6DE08).
T1 construct: equipped at the N-terminal position with a GST tag (amino acids 60-361); GST (N, cleaved yes); made in house; host or cells: E. coli BL21 (DE3)
Nature of the assay: Aurora-B kinase assay (radioactive enzyme inhibition). The source says: A radioactive enzyme inhibition assay was developed using E. coli-expressed recombinant Xenopus laevis Aurora B wild-type protein equipped at the N-terminal position with a GST tag (amino acids 60-361) in a complex with Xenopus laevis INCENP (amino acids 790-847), which is obtained from bacteria and purified. In equivalent manner a Xenopus laevis Aurora B mutant (G96V) in a complex with Xenopus laevis INCENP^790-847 may also be used.
The coding sequence for Aurora-B^60-361 from Xenopus laevis is cloned into a modified version of pGEX-6T (Amersham Biotech) via BamHI and SalI cutting sites. The vector contains two cloning cassettes which are separated by a ribosomal binding site, allowing bi-cistronic expression. In this configuration Xenopus laevis Aurora B is expressed by the first cassette, and the Xenopus laevis INCENP^790-847 is expressed by the second cassette. The resulting vector is pAUB-IN^847.
First of all the E. coli strain BL21 (DE3) is co-transformed with pUBS520 helper plasmid and pAUB-IN^847, after which protein expression is induced using 0.3 mM IPTG at an OD600 of 0.45-0.7. The expression is then continued for approx. 12-16 h at 23-25° C. with agitation.
The bacteria are then removed by centrifuging and the pellet is lysed in lysis buffer (50 mM Tris/Cl pH 7.6, 300 mM NaCl, 1 mM DTT, 1 mM EDTA, 5% glycerol, Roche Complete Protease Inhibitor tablets) using ultrasound, using 20-30 mL lysis buffer per litre of E. coli culture. The lysed material is freed from debris by centrifugation (12000 rpm, 45-60 min, JA20 rotor). The supernatant is incubated with […] of equilibrated GST Sepharose Fast Flow (Amersham Biosciences) per litre of E. coli culture for 4-5 h at 4° C. Then the column material is washed with 30 volumes of lysis buffer and then equilibrated with 30 volumes of cleavage buffer (50 mM Tris/Cl pH 7.6, 150 mM NaCl, 1 mM DTT, 1 mM EDTA). To cleave the GST tag from Aurora B, 10 units of Prescission Protease (Amersham Biosciences) are used per milligram of substrate and the mixture is incubated for 16 h at 4° C. The supernatant which contains the cleavage product is loaded onto a 6 mL Resource Q column (Amersham Biosciences) equilibrated with ion exchange buffer (50 mM Tris/Cl pH 7.6, 150 mM NaCl, 1 mM DTT, 1 mM EDTA). The Aurora B/INCENP complex is caught as it flows through, then concentrated and loaded onto a Superdex 200 size exclusion chromatography (SEC) column equilibrated with SEC buffer (10 mM Tris/Cl pH 7.6, 150 mM NaCl, 1 mM DTT, 1 mM EDTA). Fractions which contain the AuroraB/INCENP complex are collected and concentrated using Vivaspin concentrators (molecular weight exclusion 3000-5000 Da) to a final concentration of 12 mg/mL. Aliquots (e.g. 240 ng/μL) for kinase assays are transferred from this stock solution into freezing buffer (50 mM Tris/Cl pH 8.0, 150 mM NaCl, 0.1 mM EDTA, 0.03% Brij-35, 10% glycerol, 1 mM DTT) and stored at −80° C.
Test substances are placed in a polypropylene dish (96 wells, Greiner #655 201), in order to cover a concentration frame of 10 μM-0.0001 μM. The final concentration of DMSO in the assay is 5%. 30 μL of protein mix (50 mM Tris/Cl pH 7.5, 25 mM MgCl2, 25 mM NaCl, 167 μM ATP, 10 ng Xenopus laevis Aurora B/INCENP complex in freezing buffer) are pipetted into the 10 μl of test substance provided in 25% DMSO and this is incubated for 15 min at RT. Then 10 μL of peptide mix (100 mM Tris/Cl pH 7.5, 50 mM MgCl2, 50 mM NaCl, 5 μM NaF, 5 μM DTT, 1 μCi gamma-P33-ATP [Amersham], 50 μM substrate peptide [biotin-EPLERRLSLVPDS or multimers thereof, or biotin-EPLERRLSLVPKM or multimers thereof, or biotin-[…]]) are added. The reaction is incubated for 75 min (ambient temperature) and stopped by the addition of 180 μL of 6.4% trichloroacetic acid and incubated for 20 min on ice. […]

For assay [2], the target named is T2, PTK2 enzyme (Homo sapiens, UniProt Q05397).
T2 construct: purchased Invitrogen PV3832
Kind of assay: PTK2 enzyme test, Assay 2 (DELFIA, poly-Glu-Tyr substrate, antibody PT66). As to conditions: Assay 2 (values marked *); 1 h pre-incubation, 0.5% DMSO. From the text: This test uses active PTK2 enzyme (Invitrogen Code PV3832) and poly-Glu-Tyr (4:1, Sigma P-0275) as the kinase substrate. The kinase activity is detected by means of the phosphorylation of the substrate in a DELFIA™ assay. The phosphorylated substrate is detected with the europium-labelled phosphotyrosine antibody PT66 (Perkin Elmer, No.: AD0040).
In order to determine concentration-activity curves with PTK2-inhibitors the compounds are serially diluted first of all in 10% DMSO/H2O and then in kinase dilution buffer (20 mM TRIS/HCl pH 7.5, 0.1 mM EDTA, 0.1 mM EGTA, 0.286 mM sodium orthovanadate, 10% glycerol with the addition of freshly prepared BSA (fraction V, 1 mg/mL) and DTT (1 mM)) and 10 μL of each dilution are dispensed per well in a 96-well microtitre plate (clear U-shaped base plate, Greiner No. 650101) (the inhibitors are tested in duplicates) and mixed with 10 μL/well of PTK2 kinase (0.01 μg/well). PTK2 kinase is diluted accordingly beforehand with kinase dilution buffer. The diluted PTK2 inhibitor and the PTK2 kinase are pre-incubated for 1 h at RT and shaken at 500 revolutions per min. Then 10 μL/well poly-Glu-Tyr substrate (25 μg/well poly-Glu-Tyr, 0.05 μg/well biotinylated poly-Glu-Tyr dissolved in 250 mM TRIS/HCl pH 7.5, 9 mM DTT) are added. The reaction is started by the addition of 20 μL of ATP Mix (30 mM TRIS/HCl pH 7.5, 0.02% Brij, 0.2 mM sodium orthovanadate, 10 mM magnesium acetate, 0.1 mM EGTA, 1× phosphatase inhibitor cocktail 1 (Sigma, No.: P2850), 50 μM ATP (Sigma, No.: A3377; 15 mM stock solution))—the final concentration of DMSO is 0.5%. After 1 h kinase reaction (the plates are shaken at 500 rpm), the reaction is stopped by the addition of 12 μL/well of 100 mM EDTA, pH 8, and shaken for a further 5 min at RT (500 U/min). 55 μL of the reaction mixture are transferred into a streptavidin plate (Strepta Well High Bind (transparent, 96-well) made by Roche, No.: 11989685001) and incubated for 1 h at RT (shaking at 500 rpm). Then the microtitre plate is washed five times with 200 μL/well D-PBS (Invitrogen, No. 14190). 100 μL of a solution containing DELFIA Eu-N1 Anti-Phosphotyrosine PT66 antibody (Perkin Elmer, No.: AD0040, diluted 1:9000 in DELFIA test buffer (Perkin Elmer, No.: 1244-111)) is then added and it is incubated for 1 h at RT (shaking at 500 rpm). Then the plate is washed five times with 200 μL/well DELFIA washing buffer (Perkin Elmer, No.: 1244-114), 200 μL/well strengthening solution (Perkin Elmer, No.: 1244-105) is added and the whole is incubated for 10 min at RT (shaking at 300 rpm).
The time-delayed europium fluorescence is then measured in a microtitre plate reader (Victor, Perkin Elmer). The positive control consists of wells that contain solvent (0.5% DMSO in test buffer) and display uninhibited kinase activity. Wells that contain test buffer instead of enzyme act as a control for the background kinase activity.
The IC50 values are determined from concentration-activity analyses by iterative calculation using a sigmoid curve analysis algorithm (FIFTY, based on Graph PAD Prism Version 3.03) with a variable Hill coefficient.

Assay [3] deals with T2, PTK2 enzyme. Nature of the assay: PTK2 enzyme test, Assay 1 (DELFIA, poly-Glu-Tyr substrate, antibody PT60). To be noted: Assay 1 (values without *); 1 h pre-incubation, 2% DMSO. A digest of the protocol:
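Active PTK2 (0.01 µg/well) preincubated 1 h at RT with compound (duplicates, 2% DMSO final), then reacted 1 h at RT with poly(Glu,Tyr) 4:1 plus biotinylated poly(Glu,Tyr) and an ATP mix containing 50 μM ATP. EDTA-stopped, streptavidin-captured product detected by Eu-PT60 anti-phosphotyrosine DELFIA; IC50 by variable-Hill sigmoid fit.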

T1 sequence (Q6DE08 60-361): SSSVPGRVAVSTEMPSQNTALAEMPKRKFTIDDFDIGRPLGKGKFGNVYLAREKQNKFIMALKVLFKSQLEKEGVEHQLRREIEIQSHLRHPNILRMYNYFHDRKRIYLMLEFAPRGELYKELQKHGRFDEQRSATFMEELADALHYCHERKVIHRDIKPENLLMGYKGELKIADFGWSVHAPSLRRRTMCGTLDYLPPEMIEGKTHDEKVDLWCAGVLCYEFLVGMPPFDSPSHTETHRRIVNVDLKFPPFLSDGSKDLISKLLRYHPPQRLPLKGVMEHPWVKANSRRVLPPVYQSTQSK
T1 sequence (O13024 790-847 partner): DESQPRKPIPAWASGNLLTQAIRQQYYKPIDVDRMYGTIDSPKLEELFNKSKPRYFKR
T2 sequence (Q05397 whole entry): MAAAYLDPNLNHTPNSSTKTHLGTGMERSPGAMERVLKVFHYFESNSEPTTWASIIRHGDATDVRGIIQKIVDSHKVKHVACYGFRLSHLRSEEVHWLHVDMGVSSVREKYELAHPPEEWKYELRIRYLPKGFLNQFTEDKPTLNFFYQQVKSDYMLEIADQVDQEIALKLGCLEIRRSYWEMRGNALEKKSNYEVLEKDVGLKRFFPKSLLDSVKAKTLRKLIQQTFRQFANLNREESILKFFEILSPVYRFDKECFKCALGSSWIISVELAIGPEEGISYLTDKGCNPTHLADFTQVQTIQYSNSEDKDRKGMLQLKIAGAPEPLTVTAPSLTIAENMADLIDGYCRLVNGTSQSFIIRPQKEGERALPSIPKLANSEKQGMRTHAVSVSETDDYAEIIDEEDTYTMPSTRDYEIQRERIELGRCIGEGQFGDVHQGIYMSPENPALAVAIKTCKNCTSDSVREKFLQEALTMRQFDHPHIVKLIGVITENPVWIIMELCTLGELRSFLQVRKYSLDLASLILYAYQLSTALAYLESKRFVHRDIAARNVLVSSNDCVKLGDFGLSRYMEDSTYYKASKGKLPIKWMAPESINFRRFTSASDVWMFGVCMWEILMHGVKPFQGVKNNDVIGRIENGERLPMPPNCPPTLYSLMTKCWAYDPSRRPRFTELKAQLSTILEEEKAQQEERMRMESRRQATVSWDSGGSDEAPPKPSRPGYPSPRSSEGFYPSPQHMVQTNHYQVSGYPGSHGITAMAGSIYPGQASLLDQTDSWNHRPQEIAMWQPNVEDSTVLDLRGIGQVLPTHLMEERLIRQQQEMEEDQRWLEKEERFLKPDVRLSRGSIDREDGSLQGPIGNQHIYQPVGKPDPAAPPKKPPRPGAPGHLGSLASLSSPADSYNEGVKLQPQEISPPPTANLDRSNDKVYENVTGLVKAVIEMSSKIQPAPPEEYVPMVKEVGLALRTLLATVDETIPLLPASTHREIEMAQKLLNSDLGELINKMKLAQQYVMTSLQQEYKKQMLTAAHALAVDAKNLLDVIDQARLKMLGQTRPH

As for `COc1cc(C(=O)NC2CCN(C)CC2)c(F)cc1Nc1ncc(Cl)c(N[C@@H]2CCC[C@H]2N(C)S(C)(=O)=O)n1` [Example I-127, 4-{5-chloro-4-[(1R,2R)-2-(methanesulphonyl-methyl-amino)-cyclopentylamino]-pyrimidin-2-ylamino}-2-fluoro-5-methoxy-N-(1-methyl-piperidin-4-yl)-benzamide], the pIC50 in assay [1] was 6.38; in assay [2] it was 9.28.
As for `COc1ccc(C(=O)NCCN(C)C)cc1Nc1ncc(C(F)(F)F)c(N[C@@H]2CCCC[C@H]2N(C)S(C)(=O)=O)n1` [Example I-144], the pIC50 in assay [1] was less than 5.05; in assay [2], 9.12.
Consider `CCc1cc(Nc2ncc(C(F)(F)F)c(N[C@@H]3CCC[C@H]3N(C)S(C)(=O)=O)n2)c(OC)cc1N1CCNCC1` [Example I-153], for which the values for the negative logarithm of the IC50 (pIC50) in assay [1] and in assay [2] were less than 5.00 and 9.16, respectively.
With `COc1cc(C(=O)NC2CCN(C)CC2)c(Cl)cc1Nc1ncc(C(F)(F)F)c(N[C@@H]2CCCC[C@H]2N(C)S(C)(=O)=O)n1` [Example I-128], the negative logarithm of the IC50 (pIC50) is less than 5.30 in assay [1] and 9.10 in assay [3].
Turning to `COc1cc(CN(C)C)ccc1Nc1ncc(C(F)(F)F)c(N[C@@H]2CCCC[C@H]2N(C)S(C)(=O)=O)n1` [Example I-147], the pIC50 in assay [1] is 6.48; in assay [3], 9.05.
With `CNC(=O)c1cc(OC)c(Nc2ncc(C(F)(F)F)c(N[C@@H]3CCCC[C@H]3N(C)S(C)(=O)=O)n2)cc1Cl` [Example I-135], the pIC50 in assay [1] was 5.99; in assay [3] it was 9.00.
With `COc1cc(NC(=O)C2CCN(C)CC2)ccc1Nc1ncc(C(F)(F)F)c(N[C@@H]2CCCC[C@H]2N(C)S(C)(=O)=O)n1` [Example I-155], the negative logarithm of the IC50 (pIC50) is 6.61 in assay [1] and 9.03 in assay [2].
In the case of `COc1cc(C(=O)NC2CCN(C)CC2)c(C)cc1Nc1ncc(Cl)c(N[C@@H]2CCCC[C@H]2N(C)S(C)(=O)=O)n1` [Example I-164], the pIC50 in assay [1] is 5.47; in assay [3], 9.00.
As to `COc1cc(CN2CCN(C)CC2)ccc1Nc1ncc(C(F)(F)F)c(N[C@@H]2CCCC[C@H]2N(C)S(C)(=O)=O)n1` [Example I-148], the pIC50 was 6.15 in assay [1] and 9.02 in assay [3].
As to `COCCNC(=O)c1cc(OC)c(Nc2ncc(C(F)(F)F)c(N[C@@H]3CCCC[C@H]3N(C)S(C)(=O)=O)n2)cc1C` [Example I-133], the pIC50 is 5.66 in assay [1] and 9.04 in assay [3].
For `COc1cc(NC(C)=O)ccc1Nc1ncc(C(F)(F)F)c(N[C@@H]2CCCC[C@H]2N(C)S(C)(=O)=O)n1` [Example I-165], in that order: 6.78 and 8.40.
In the case of `COc1cc(C(=O)NC2CCN(C)CC2)ccc1Nc1ncc(C(F)(F)F)c(N[C@@H]2CCCC[C@H]2NS(C)(=O)=O)n1` [Example I-125, 4-[4-((1R,2R)-2-methanesulphonylamino-cyclohexylamino)-5-trifluoromethyl-pyrimidin-2-ylamino]-3-methoxy-N-(1-methyl-piperidin-4-yl)-benzamide], the pIC50 is 6.59 in assay [1] and 9.03 in assay [3].
For `COc1cc(C(=O)NC2CCN(C)CC2)c(C)cc1Nc1ncc(C(F)(F)F)c(N[C@@H]2CCCC[C@H]2N(C)S(C)(=O)=O)n1` [Example I-93], the pIC50 in assay [1] was 5.39; in assay [3] it was 9.07.
Turning to `COc1cc(C(=O)NC2CCN(C)CC2)ccc1Nc1ncc(C(F)(F)F)c(N[C@@H]2CCC[C@H]2NS(C)(=O)=O)n1` [Example I-126, 4-[4-((1R,2R)-2-methanesulphonylamino-cyclopentylamino)-5-trifluoromethyl-pyrimidin-2-ylamino]-3-methoxy-N-(1-methyl-piperidin-4-yl)-benzamide], the negative-log IC50 (pIC50) in assay [1] was 6.58; in assay [3], 9.05.
Consider `COc1cc(C(=O)NC2CCN(C)CC2)ccc1Nc1ncc(C(F)(F)F)c(N[C@@H]2CCC[C@H]2N(C)S(C)(=O)=O)n1` [Example I-124, 4-{4-[(1R,2R)-2-(methanesulphonyl-methyl-amino)-cyclopentylamino]-5-trifluoromethyl-pyrimidin-2-ylamino}-3-methoxy-N-(1-methyl-piperidin-4-yl)-benzamide], for which the pIC50 in assay [1] was 6.62; in assay [3], 9.09.
